Reference: paper PMC8363620, “The ERAP1 active site cannot productively access the N-terminus of antigenic peptide precursors stably bound onto MHC class I” (Scientific Reports, 2021)
Where a SMILES comes first, the peptide text is derived from it. The star is where a group is joined. X1 = CC(C)CC(CP(=O)(O)[C@@H](N)CCc1ccccc1)C(=O)*

Tests used:
[1] = molecular target: T1, ERAP1 (Homo sapiens, UniProt Q9NZ08); test: Fluorigenic enzymatic assay: inhibition of ERAP1 hydrolysis of Leu-AMC; assay type: biochemical
T1 construct: inferred from the nickel-NTA purification; made in house; host or cells: Hi5 insect cells, recombinant baculovirus
Description: Expression and purification of ERAP1 was performed as described previously. Briefly, ERAP1 was expressed in Hi5 insect cells after infection with recombinant baculovirus at 27 °C. Protein was isolated by affinity chromatography using nickel-nitrilotriacetic acid–agarose beads. Protein aliquots were kept at − 80 °C in Hepes/NaCl buffer pH 7.0 supplemented with 10% (v/v) glycerol, until needed.
ERAP1 enzymatic activity and inhibitor IC50 values were calculated as previously reported. Briefly, hydrolysis of the fluorescent substrate leucine-aminomethylcoumarin (Leu-AMC, Sigma–Aldrich, L2145) was followed at 460 nm (excitation at 380 nm) using a Spark 10 M (TECAN) multimode microplate reader. The IC50 of DG080 was calculated by using the equation log (inhibitor) versus response-variable slope of GraphPad Prism 8.0™.

[2] = molecular target: HLA-B*08:01 (Homo sapiens, UniProt P01889, A93T/A95T/D138N/E176V/E187T/K202T/Q94N/R180D/S35A/V36M/Y33D/Y91F); conditions: cited from earlier work
[3] = molecular target: T1, ERAP1; conditions: cited from earlier work
[4] = tested on: HLA-B*08; conditions: non-covalently linked peptide, with AI9; cited from earlier work
[5] = molecular target: T1, ERAP1; conditions: cited from earlier work; remark: listed apart in the source
[6] = molecular target: T1, ERAP1; test: ERAP1 trimming of MHCI-bound peptide followed by native-PAGE; assay type: biochemical
[7] = tested on: HLA-B*08; test: Kinetic stability of complex by competition with SYPRO Orange (peptide dissociation); assay type: binding; conditions: 37 °C, 8 μM complex, 50X SYPRO Orange dye (4 μL in 20 μL), excitation 533 nm, emission 572 nm, non-covalent complex, each data point average of two repetitions
Description: (§1) The assay was performed in the Lightcycler 96 RT-PCR instrument as previously reported. Reaction mixtures (total volume 20 μL) consisted of 16 μL protein complex (final concentration 8 μΜ) and 4 μL of 50X SYPRO Orange dye (Sigma–Aldrich, S5692). Excitation wavelength was set at 533 nm and emission at 572 nm. The temperature was set at 37 °C for the duration of the experiment.

[8] = molecular target: T2, HLA-B*08(E76C) (Homo sapiens, UniProt P01889, A93T/A95T/D138N/E100C/E176V/E187T/K202T/Q94N/R180D/S35A/V36M/Y33D/Y91F); test: as above; assay type: binding; conditions: 37 °C
T2 construct: made in house
Description: as §1

[9] = molecular target: T2, HLA-B*08(E76C); test: Peptide exchange with excess 9mer […] (AI9), native-PAGE; assay type: binding
Description: Separating gel was prepared by mixing 2.9 mL Tris–HCl 0.375 M pH 8.8 solution, 2 mL acrylamide solution 30%, 100 μL APS 10% w/v and 5 μL TEMED. Stacking gel was formed by mixing 2.14 mL Tris–HCl 0.375 M pH 8.8 solution, 0.34 mL acrylamide solution 30%, 50 μL APS 10% w/v and 5 μL TEMED. Sample loading buffer was formed by mixing 62.5 mM Tris–HCl pH 6.8 solution, 25% v/v glycerol and 1% v/v bromophenol blue solution. Running buffer consists of 25 mM Tris-base and 192 mM glycine. Electrophoresis is conducted at 4 °C, 100 V for 5 h. 1,5 µg of MHC I-peptide complexes and 3 µg of ERAP1 were used.

[10] = molecular target: HLA-B*08:01(E76C) (Homo sapiens, UniProt P01889, A93T/A95T/D138N/E176V/E187T/K202T/Q94N/R180D/S35A/V36M/Y33D/Y91F); test: Thermal shift assay (DSF), melting temperature of HLA-B*08(E76C)/peptide complex; assay type: physicochemical; conditions: purified complex, Fig. 1F three repetitions shown
Description: The assay as well as the calculation of the melting temperature (Tm) of the complexes HLA-B*08:01(E76C)-DG080 and HLA-B*08:01(E76C)-AI12Cys were performed as previously reported.

[11] = molecular target: T1, ERAP1; test: ERAP1 trimming of MHCI-bound peptide followed by MALDI-TOF-MS; assay type: biochemical; conditions: 20 nM or 100 nM ERAP1; stopped with TFA; 100 mM DTT added to free peptide
Description: To confirm the above finding we followed the trimming reaction by MALDI-TOF–MS which allows the concurrent detection of several peptide species. HLA-B*08(E76C)- […] was incubated with either 20 nM or 100 nM of ERAP1 and the reaction was stopped by the addition of TFA and flash-frozen. MALDI-TOF–MS analysis was performed as described before, but with the addition of 100 mM DTT to reduce the disulfide linkage to the complex so that the freed peptide can be detected (Fig. 2D).
Detection of peptides bound onto ΗLA-B*08:01 by MALDI-TOF–MS was performed as previously described[17] with the exception that 100 mM DTT was added to 10 μL samples of ΗLA-B*08:01(E76C) protein complexes to break the disulfide bond and allow detection of the peptide.

[12] = molecular target: T1, ERAP1; test: ERAP1 ternary complex formation, native-PAGE band shift; assay type: binding; conditions: equimolar mixture of ERAP1 and complex
Source text: The phosphinic head of the DG080 pseudopeptide should provide it with high affinity for the active site of ERAP1. To validate this assumption, we mixed free DG080 with ERAP1 and followed ERAP1 activity using the small fluorigenic substrate L-Leucine-7-amido-4-methylcoumarin (Leu-AMC)[24]. […] Due to the low amounts of complex available, we performed assays at a fixed concentration of 1 μΜ for both free DG080 and HLA-B*08(E76C)-DG080 complex. At that concentration, free DG080 was able to inhibit almost 90% of ERAP1 activity, consistent with its measured IC50. […] We conclude that although DG080 in solution has full access to the ERAP1 active site, DG080 covalently bound onto HLA-B*08 has very limited access to the active site of ERAP1, possibly due to steric hindrances that limit a proper binding orientation necessary so that the ERAP1 active site can approach the MHCI binding groove. To validate the stability of the HLA-B*08(E76C)-DG080 versus ERAP1 trimming or peptide exchange, we first incubated the complex with 20 nM ERAP1 at 37 °C for 1 h and analyzed the sample by native-PAGE (Fig. 4C). […] To further explore a potential interaction between ERAP1 and the phosphinic N-terminus of the peptide bound onto HLA-B*08, we analyzed an equimolar mixture of ERAP1 with HLA-B*08(E76C)-DG080 by native PAGE (Fig. 4D). […]

[13] = molecular target: Endoplasmic Reticulum Aminopeptidase 1 (ERAP1) (UniProt Q9NZ08)
[14] = 20 nM ERAP1, up to 2 h (0–120 min)

With CC(C)CC(CP(=O)(O)[C@@H](N)CCc1ccccc1)C(=O)NCC(=O)N[C@@H](CO)C(=O)NCC(=O)N[C@@H](CO)C(=O)NCC(=O)N[C@@H](CO)C(=O)N[C@@H](C)C(=O)N[C@@H](C)C(=O)N[C@@H](CCCCN)C(=O)N[C@@H](CCCCN)C(=O)N[C@@H](CCCCN)C(=O)N[C@@H](Cc1ccc(O)cc1)C(=O)N[C@@H](CS)C(=O)N[C@@H](CC(C)C)C(=O)O (stereo partly shown) [DG080] (X1-GSGSGSAAKKKYCL-OH) the inhibition at 1 µM ([1]; free peptide, 1 μM, Leu-AMC hydrolysis, two measurements) was ~90% and the IC50 ([1]; free peptide, substrate Leu-AMC, excitation 380 nm, emission 460 nm, log(inhibitor) vs response-variable slope, each point average of two measurements) was 350 ± 89 nM.

In the case of ARAALRSRYWAI [listing 1 of 2 here], the “stability of complex with HLA-B*08:01” value [2] is given as “thermodynamically stable but kinetically labile complex”, the “ERAP1 trimming half-life, MHCI-bound peptide (MALDI-TOF-MS)” value [3] is given as 20 to 30 min and the “peptide exchange (native-PAGE)” value [4] is given as “similarly to the non-covalently linked AI12 peptide”. The “ERAP1 trimming half-life, MHCI-bound peptide (native-PAGE)” value [5] was 18 min, the “ERAP1 trimming while bound onto HLA-B*08:01” value ([5]; non-covalent complex, compared with solution) was “ERAP1 can apparently trim this peptide while it is bound onto HLA-B*08:01, albeit slower than in solution” and the “ERAP1 trimming: change in electrophoretic mobility (native-PAGE)” value (shortened to “ERAP1 trimming: change”) [6, 14] was “ERAP1 was able to modify the electrophoretic mobility”.

With ARAALRSRYWAI [listing 2 of 2 here] the “half-life of complex (t1/2)” value [7] was 7 ± 1 min.

For “ARAALRSRYWCI [disulfide-linked HLA-B*08/peptide complex]”, the “half-life of complex (t1/2)” value ([8]; SYPRO Orange competition, 8 μM complex, 50X SYPRO Orange dye (4 μL in 20 μL), excitation 533 nm, emission 572 nm, each data point average of three repetitions) was 450 ± 38 min, the “slowing of dye access to MHC binding groove by covalently linking the peptide” value ([8]; vs non-covalent HLA-B*08-ARAALRSRYWAI complex) was “almost 2 orders of magnitude” and the “peptide exchange (native-PAGE) in presence of DTT” value ([9]; 100 μM ALRSRYWAI + DTT (100 μM in Fig. 2B legend), incubation at RT) was “full exchange of the ARAALRSRYWCI with ALRSRYWAI”. For the same compound, the “peptide exchange (electrophoretic mobility in native-PAGE)” value ([9]; excess ALRSRYWAI (100 μM), 60 min at RT, no DTT) was “did not alter the electrophoretic mobility of the complex in native-PAGE suggesting no peptide exchange”, the “melting temperature (Tm)” value [10] was 44.0 ± 0.5 °C and the “ERAP1 trimming: change” value [6, 14] was “no change in electrophoretic mobility was observed”. The “time-dependent decrease of 12mer peptide on incubation with ERAP1 (MALDI-TOF-MS)” value [11] was “no time-dependent decrease of the 12mer peptide”.

With “hFΨ[P(O)(OH)CH2]LGSGSGSAAKKKYCL [HLA-B*08(E76C)-DG080, disulfide-linked HLA-B*08/ phosphinic peptide complex]” the “peptide exchange (electrophoretic mobility in native-PAGE)” value ([9]; excess (100 μM) ALRSRYWAI, 37 °C, 1 h) was “no change in electrophoretic mobility was evident”, the “effect on ERAP1 enzymatic activity” value ([1]; complex, 1 μM, Leu-AMC hydrolysis, two measurements) was “unable to fully inactivate ERAP1, and had only a marginal effect on its enzymatic activity” and the “ERAP1 trimming: change” value ([6]; 20 nM ERAP1, 37 °C, 1 h) was “No change in electrophoretic mobility was observed”. The “band shift with ERAP1 (stable ternary complex formation)” value [12] was “No band shifts were evident”.

In the case of “phosphinic pseudopeptide DG080, hFΨ[P(O)(OH)CH2]…”, the inhibition of ERAP1 hydrolysis of Leu-AMC by titrated free DG080, IC50 [13] is reported as 350 nM and the inhibition of ERAP1 hydrolysis of the fluorigenic substrate at a fixed 1 μΜ of free DG080 [13] is reported as 90%.
